IC50 data for three compounds are collected here from US7473711B2, “Androgen modulators” (Pfizer Inc., priority 2004, dated 2009).

As usually defined, the IC50 is the point on the concentration scale where inhibition reaches its midpoint.

The experiment concerns the target T1, androgen receptor in MDA-MB453-MMTV clone 54-19 cells (Homo sapiens, UniProt P10275).
T1 sequence (P10275 1-920 Q868H): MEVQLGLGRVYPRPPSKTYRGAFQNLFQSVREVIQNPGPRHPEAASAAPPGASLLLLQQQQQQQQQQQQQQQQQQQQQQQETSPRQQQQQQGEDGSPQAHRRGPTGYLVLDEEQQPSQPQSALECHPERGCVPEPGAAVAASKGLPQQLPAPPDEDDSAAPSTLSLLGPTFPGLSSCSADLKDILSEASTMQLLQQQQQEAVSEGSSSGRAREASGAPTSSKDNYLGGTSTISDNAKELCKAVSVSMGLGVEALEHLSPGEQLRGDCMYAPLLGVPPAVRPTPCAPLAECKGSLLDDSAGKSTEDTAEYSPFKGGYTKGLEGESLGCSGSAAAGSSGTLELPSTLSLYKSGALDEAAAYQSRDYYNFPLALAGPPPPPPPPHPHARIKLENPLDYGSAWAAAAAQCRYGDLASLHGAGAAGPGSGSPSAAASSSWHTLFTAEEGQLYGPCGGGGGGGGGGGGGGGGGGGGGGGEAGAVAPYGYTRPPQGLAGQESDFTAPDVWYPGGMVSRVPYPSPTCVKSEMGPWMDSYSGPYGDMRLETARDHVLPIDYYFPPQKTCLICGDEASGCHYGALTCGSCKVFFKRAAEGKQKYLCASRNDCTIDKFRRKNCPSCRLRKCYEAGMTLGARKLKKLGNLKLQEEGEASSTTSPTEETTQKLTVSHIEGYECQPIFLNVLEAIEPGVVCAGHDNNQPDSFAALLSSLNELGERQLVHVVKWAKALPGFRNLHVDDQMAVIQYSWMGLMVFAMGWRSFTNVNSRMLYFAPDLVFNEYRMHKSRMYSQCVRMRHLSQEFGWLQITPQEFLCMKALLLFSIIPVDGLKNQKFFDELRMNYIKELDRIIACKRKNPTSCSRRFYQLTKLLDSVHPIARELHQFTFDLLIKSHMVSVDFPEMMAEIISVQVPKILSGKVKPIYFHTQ
Description: AR antagonist cell assay (MMTV-luciferase reporter, 100 pM DHT). The format is cell-based. Particulars: read-out: AR Cell IC50; MDA-MB453-MMTV clone 54-19, inhibition of 100 pM DHT induced luciferase, 17 hr; mean of multiple tests. The procedure: The compounds ability to antagonize the effects of androgen on the androgen receptor were determined in a whole cell assay as described immediately below.
Experimental Procedure for AR Antagonist Cell Assay
Cell line: MDA-MB453-MMTV clone 54-19. This cell line is a stable transfected cell line with MDA-MB453 cell background (a human breast tumor cell line expressing androgen receptor). A MMTV minimal promoter containing ARE was first cloned in front of a firefly luciferase reporter gene. Then the cascade was cloned into transfection vector pUV120puro. Electroporation method was used for transfecting MDA-MB-453 cell. Puromycin resistant stable cell line was selected. Cell Culture Media and Reagents:
Culture medium: DMEM (high glucose, Gibco cat #: 11960-044), 10% FBS, and 1% L-glutamine
Plating medium: DMEM (phenol red free), 10% charcoal treated HyClone serum, 1% L-glutamine
Assay medium: DMEM (phenol red free), 1% charcoal treated HyClone serum, 1% L-glutamine, and 1% penicillin/streptomycin
3X luciferase buffer: 2% beta-mercaptoethanol, 0.6% ATP, 0.0135% luciferine in cell lysis buffer
• 1. Cells are maintained in culture medium, splitting cells when they reach 80-90% confluence • 2. To test compounds, 10,000 cells/well are plated to opaque 96 cell culture plate in 100 ul/well plating medium, culture for overnight at 37° C. in cell culture incubator • 3. Carefully remove plating medium, then add 80 ul/well of pre-warmed assay medium, add 10 ul/well testing compound (final concentration at) 1000 nM, 200 nM, 40 nM, 8 nM, 1.6 nM, and 0.32 nM), incubate at 37° C. for 30 minutes • 4. Add 10 ul/well freshly prepared DHT (final concentration at 100 pM) to each well, incubate at 37° C. for 17 hr (overnight) • 5. Add 50 ul/well 3X luciferase buffer, incubate at room temperature for 5 minutes, then count on Luminometer
The fold induction over background by 100 pM DHT in the absence of testing compounds is standardized as 100% and experimental result is expressed as percentage of inhibition by testing compounds.
The results are reported as the mean of multiple tests as described below (the numbers of tests are indicated in the footnote). N.D. denotes that the compound was not tested.
Consider `N#Cc1ccc(OCCCCCOc2ccc(C#N)c(C(F)(F)F)c2)cc1C(F)(F)F` [Example 24], for which the IC50 was found to be 64 nM.

With `N#Cc1ccc(OC(CO)COc2ccccc2)cc1C(F)(F)F` (stereo not drawn) [Example 28, 4-(1-Hydroxymethyl-2-phenoxy-ethoxy)-2-trifluoromethyl-benzonitrile], the half-maximal inhibitory concentration (IC50) is 69 nM.

With `COCC(COc1ccccc1)Oc1ccc(C#N)c(C(F)(F)F)c1` (stereo not drawn) [Example 27, 4-(1-Methoxymethyl-2-phenoxy-ethoxy)-2-trifluoromethyl-benzonitrile], the IC50 is 19 nM.
